EC50 and CC50 data for 2 compounds are collected here from patent US20220395500A1, “SMALL MOLECULE ACTIVATORS OF INTERFERON REGULATORY FACTOR 3 AND METHODS OF USE THEREOF” (Neuralexo, Inc., priority 2020, published 2022).

Common to all, as to format: cell-based, human
The test system of data set [1] is IRF-Lucia luciferase reporter (ISRE) in THP1-Dual cells. The experiment in a line: THP1-Dual IRF-Lucia luciferase reporter assay (ISRE activation). The settings on record: Homo sapiens, THP1-Dual, Human Reporter Cell Line THP1; read-out: THP1 IRF EC50. The method, boiled down: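 THP1-Dual cells were differentiated with 5 ng/mL PMA for 48 h at 37° C, washed, then treated with compounds at 10 μM final for 24 h; LPS at 313 ng/mL served as control. ISRE-driven Lucia luciferase in supernatant was read by luminescence.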
(In general: Reporter assays use an easily measured gene product as a stand-in for the process of interest.)

Data set [2] can be described thus: THP1-Dual cytotoxicity (Cell Titer Glo, ATP). The settings on record: human, THP1-Dual cells, Human Reporter Cell Line THP1; read-out: Thp1 cytotox CC50. In a few lines:
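Human THP1-Dual cells were treated across an 8-point dose-response range. Cytotoxicity was measured in-plate by CellTiter-Glo luminescence, which quantifies ATP as a marker of metabolically active cells, and CC50 was taken as the 50% cytotoxic concentration.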
(In general: Cellular ATP, detected with luciferase, serves as a proxy for viable cell number.)

The test system of data set [3] is NF-κB-SEAP reporter in THP1-Dual cells. The data set can be described thus: THP1-Dual NF-κB-SEAP reporter counterscreen. To be noted: Homo sapiens, THP1-Dual, Human Reporter Cell Line THP1; read-out: THP1 NFkB EC50. In a few lines:
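THP1-Dual cells differentiated 48 h with 5 ng/mL PMA, washed, then treated 24 h with compounds at 10 μM final; LPS 313 ng/mL as control. Supernatant read for Lucia luciferase (ISRE) by QUANTI-Luc luminescence and for NF-κB-SEAP by QUANTI-Blue absorbance at 630 nm after 1 h at 37° C.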

For orientation: EC50 means the concentration at which the effect is half-maximal. A word on the CC50: it is the concentration giving 50% cytotoxicity.

In the case of `COCOc1ccc2oc(-c3ccc(C)c(NC(=O)c4ccc(OC)c([N+](=O)[O-])c4)c3)nc2c1` [ND-95, 4-methoxy-N-(5-(5-(methoxymethoxy)benzo[d]oxazol-2-yl)-2-methylphenyl)-3-nitrobenzamide], the half-maximal effective concentration (EC50) is 0.59 µM in data set [1] and 1.27 µM in data set [3]. Also, the CC50 in data set [2] turned out to be 26.7 µM.
In the same order, the values of `COCOc1ccc2oc(-c3ccc(C)c([N+](=O)[O-])c3)nc2c1` [ND-96] are roughly 4.1 µM, roughly 4.09 µM and 30.1 µM.
